{"source": "patent US20090253157A1", "about": "“METHOD OF DIRECTED DIFFERENTIATION OF PORCINE EMBRYONIC STEM CELLS AND USING THE SAID CELLS IN DRUG SCREENING” (Livestock Research Institute, Council of Agriculture, …, priority 2008, published 2009)", "test_system": "pES cells of the M215-3 strain", "experiment": "Directed neural differentiation of pES cells (two-stage induction), immunocytochemical staining for neural biomarkers", "type": "cell-based, porcine", "procedure": "The pES cells of the M215-3 strain derived from the pre-implantation blastocysts of Taiwan Livestock Research Institute Black Pig No. 1 (a topcrossing breed established from Taoyuan and Duroc pigs) were maintained in ES-cell culture medium (ESM) consisting of Dulbecco's modified eagle medium (DMEM, high glucose and no pyruvate, Invitrogen, Grand Island, N.Y., USA) supplemented with 1 mM L-glutamine (Sigma-Aldrich, St. Louis, Mo., USA), 0.1 mM β-2-mercaptoethanol (Sigma-Aldrich), […] MEM non-essential amino acids (Sigma-Aldrich), 0.03 mM adenosine (Sigma-Aldrich), 0.03 mM guanosine (Sigma-Aldrich), 0.03 mM cytidine (Sigma-Aldrich), 0.03 mM uridine (Sigma-Aldrich), 0.01 mM thymidine (Sigma-Aldrich), antibiotics (50 units/ml penicillin G and 50 μg/ml streptomycin sulfate, Invitrogen) and 16% fetal bovine serum (FBS, Invitrogen) as described previously (Chen et al., 1991, J. Chin. Soc. Anim. Sci. 20: 326-339). Briefly, the pluripotent pES cells were propagated on a feeder layer of mitomycin C (Sigma-Aldrich) inactivated STO cells (mouse embryonic fibroblasts, CRL-1503, USA) in gelatin-coated Multidish 4 Wells® (Nunc 176740, Roskilde, Denmark) in ESM at 39° C. with an atmosphere of 5% CO2 in air. For the maintenance of undifferentiation, pES colonies were regulatory subcultured with 0.25% trypsin-0.02 mM EDTA (Invitrogen) and re-plated onto fresh STO feeder layers every 5 to 7 days.\nConfluent pES cells were trypsinized and subjected to a two-stage in vitro induction protocol for neural differentiation. They were firstly taken into a suspension culture in an Easy Flask® (NUNC 169900, Roskilde, Denmark) for a 12-day period of neural induction. Neural induction is initiated by plating undifferentiated pES cells as single-cell suspension at a number of 1×10^5 cells totally in ESM medium withdrawing FBS and containing 1 μM retinoic acid (RA, Sigma-Aldrich), 200 ng/ml sonic hedgehog (SHH, R&D systems, Minneapolis, Minn., USA) and 100 ng/ml fibroblast growth factor (FGF, Sigma-Aldrich) as described by Barberi et al. (Nat. Biotechnol. 2003. 21: 1200-1207). Five combined treatments of neurogenic stimulators for neural induction were applied: (1) RA, (2) RA+SHH, (3) RA+FGF, (4) SHH+FGF, (5) RA+SHH+FGF. After 12 days of induction, the pES cell-derived neural cells were plated onto gelatin-coated 4-well dishes in high-density (2×10^4 cells/ml) or low-density (5×10^3 cells/ml). These cells were then cultured in DMEM/F12 medium (Sigma-Aldrich) supplemented with 10% FBS, 20 ng/ml human recombinant epidermal growth factor (hrEGF, Invitrogen), 20 ng/ml human recombinant basic fibroblast growth factor (hrbFGF, Invitrogen), and 1:100 N2 (Invitrogen), and allowed for the propagation of neural precursor cells (Pan et al., 2005 Biochem. Biophys. Res. Commun. 327: 548-556). After plating onto the 4-well dish, the induced pES cells were treated with trypsin/EDTA and collected at days 2, 4, 6, 8, 10, and 12, respectively, to analyze the neural-related development by immunocytochemical staining.\nCells for immunocytochemical analysis were fixed in 10% formalin at room temperature for 30 minutes. The cells were washed with phosphate buffered saline (PBS, Sigma-Aldrich), then incubated with 0.3% Triton X-100 (Sigma-Aldrich) for 10 minutes, 3% H2O2 (Sigma-Aldrich) for 5 minutes and incubated in blocking buffer (5% FBS) at room temperature for 2 hours. After being washed with PBS, the cells were incubated overnight with appropriate dilution of primary antibody, or combination of antibodies at 4° C. (Li et al., 2005 Nat. Biotechnol. 2005. 23: 215-221). Subsequently, cells were incubated with secondary antibody of Fluorescein (FITC)-conjugated AffiniPure Goat Anti-Rabbit IgG, Goat Anti-Mouse IgG, IgM (1:200, Jackson Immunoresearch Laboratories, West Baltimore Pike, Pa., USA) for a minimum of 2 hours, followed by washing in PBS. […]", "key": {"[1]": {"conditions": "day 6 after the treatments, mean±S.D."}}, "note": "Several values for one entry are separate records, joined by “and”; a condition that tells them apart may be missing. Equal entries are not always repeated. Marks after values point to notes of the source that are not given here."}
{"smiles": "CC1=C(/C=C/C(C)=C/C=C/C(C)=C/C(=O)O)C(C)(C)CCC1", "note": "[RA, retinoic acid]", "values": [{"measurement": "percentage of pES cell-derived neural lineages expressing nestin", "setting": "D2 after replating, 12-day induction, 1 μM RA, 200 ng/ml SHH, 100 ng/ml FGF, mean±S.D.", "result": "86.2 ± 7.9^ab %"}, {"measurement": "percentage of pES cell-derived neural lineages expressing A2B5", "setting": "D2 after replating, mean±S.D.", "result": "83.7 ± 12.6", "unit": "%"}, {"measurement": "percentage of pES cell-derived neural lineages expressing ChAT", "setting": "D2 after replating, mean±S.D.", "result": "87.1 ± 5.6^ab %"}, {"measurement": "percentage of pES cell-derived neural lineages expressing GFAP", "setting": "D2 after replating, mean±S.D.", "result": "9.8 ± 3.8", "unit": "%"}, {"measurement": "percentage of pES cell-derived neural lineages expressing NFL", "setting": "D2 after replating, mean±S.D.", "result": "93.9 ± 3.9^a %"}, {"measurement": "percentage of pES cell-derived neural lineages expressing TH", "setting": "D2 after replating, mean±S.D.", "result": "7.8 ± 2.5", "unit": "%"}, {"measurement": "percentage of pES cell-derived neural lineages expressing A2B5", "setting": "D4 after replating, mean±S.D.", "result": "86.6 ± 3.3", "unit": "%"}, {"measurement": "percentage of pES cell-derived neural lineages expressing ChAT", "setting": "D4 after replating, mean±S.D.", "result": "85.8 ± 3.2^bc %"}, {"measurement": "percentage of pES cell-derived neural lineages expressing GFAP", "setting": "D4 after replating, mean±S.D.", "result": "7.6 ± 4.2", "unit": "%"}, {"measurement": "percentage of pES cell-derived neural lineages expressing NFL", "setting": "D4 after replating, mean±S.D.", "result": "90.3 ± 4.8^ab %"}, {"measurement": "percentage of pES cell-derived neural lineages expressing TH", "setting": "D4 after replating, mean±S.D.", "result": "8.0 ± 4.9", "unit": "%"}, {"measurement": "percentage of pES cell-derived neural lineages expressing nestin", "setting": "D4 after replating, mean±S.D.", "result": "90.5 ± 4.7^a %"}, {"measurement": "percentage of pES cell-derived neural lineages expressing A2B5", "setting": "D6 after replating, mean±S.D.", "result": "87.6 ± 7.4% and 87.6 ± 7.4^a %"}, {"measurement": "percentage of pES cell-derived neural lineages expressing ChAT", "setting": "D6 after replating, mean±S.D.", "result": "91.8 ± 8.3^a %"}, {"measurement": "percentage of pES cell-derived neural lineages expressing GFAP", "setting": "D6 after replating, mean±S.D.", "result": "7.7±3.6% and 7.7 ± 3.6^d %"}, {"measurement": "percentage of pES cell-derived neural lineages expressing NFL", "setting": "D6 after replating, mean±S.D.", "result": "91.8 ± 6.0^a %"}, {"measurement": "percentage of pES cell-derived neural lineages expressing TH", "setting": "D6 after replating, mean±S.D.", "result": "8.7±1.7% and 8.7 ± 1.7^b %"}, {"measurement": "percentage of pES cell-derived neural lineages expressing A2B5", "setting": "D8 after replating, mean±S.D.", "result": "86.9 ± 9.3", "unit": "%"}, {"measurement": "percentage of pES cell-derived neural lineages expressing ChAT", "setting": "D8 after replating, mean±S.D.", "result": "86.9 ± 4.4^ab %"}, {"measurement": "percentage of pES cell-derived neural lineages expressing GFAP", "setting": "D8 after replating, mean±S.D.", "result": "7.3 ± 1.5", "unit": "%"}, {"measurement": "percentage of pES cell-derived neural lineages expressing NFL", "setting": "D8 after replating, mean±S.D.", "result": "85.8 ± 4.2^b %"}, {"measurement": "percentage of pES cell-derived neural lineages expressing TH", "setting": "D8 after replating, mean±S.D.", "result": "8.5 ± 2.7", "unit": "%"}, {"measurement": "percentage of pES cell-derived neural lineages expressing nestin", "setting": "D8 after replating, mean±S.D.", "result": "81.2 ± 8.0^bc %"}, {"measurement": "percentage of pES cell-derived neural lineages expressing A2B5", "setting": "D10 after replating, mean±S.D.", "result": "86.3 ± 1.9", "unit": "%"}, {"measurement": "percentage of pES cell-derived neural lineages expressing ChAT", "setting": "D10 after replating, mean±S.D.", "result": "89.9 ± 7.2^ab %"}, {"measurement": "percentage of pES cell-derived neural lineages expressing GFAP", "setting": "D10 after replating, mean±S.D.", "result": "7.7 ± 4.5", "unit": "%"}, {"measurement": "percentage of pES cell-derived neural lineages expressing NFL", "setting": "D10 after replating, mean±S.D.", "result": "84.4 ± 7.7^b %"}, {"measurement": "percentage of pES cell-derived neural lineages expressing TH", "setting": "D10 after replating, mean±S.D.", "result": "8.5 ± 4.2", "unit": "%"}, {"measurement": "percentage of pES cell-derived neural lineages expressing nestin", "setting": "D10 after replating, mean±S.D.", "result": "82.4 ± 11.4^bc %"}, {"measurement": "percentage of pES cell-derived neural lineages expressing A2B5", "setting": "D12 after replating, mean±S.D.", "result": "84.8 ± 5.2", "unit": "%"}, {"measurement": "percentage of pES cell-derived neural lineages expressing ChAT", "setting": "D12 after replating, mean±S.D.", "result": "80.3 ± 6.0^c %"}, {"measurement": "percentage of pES cell-derived neural lineages expressing GFAP", "setting": "D12 after replating, mean±S.D.", "result": "7.6 ± 2.3", "unit": "%"}, {"measurement": "percentage of pES cell-derived neural lineages expressing NFL", "setting": "D12 after replating, mean±S.D.", "result": "74.4 ± 12.3^c %"}, {"measurement": "percentage of pES cell-derived neural lineages expressing TH", "setting": "D12 after replating, mean±S.D.", "result": "8.4 ± 3.5", "unit": "%"}, {"measurement": "percentage of pES cell-derived neural lineages expressing nestin", "setting": "D12 after replating, mean±S.D.", "result": "77.9 ± 6.6^c %"}, {"measurement": "percentage of pES cell-derived neural lineages expressing CNPase", "setting": "[1]", "result": "89.8 ± 4.7^ab %"}, {"measurement": "percentage of pES cell-derived neural lineages expressing GABA", "setting": "[1]", "result": "80.5±9.2% and 80.5 ± 9.2^a %"}, {"measurement": "percentage of pES cell-derived neural lineages expressing MAP2", "setting": "[1]", "result": "86.1 ± 3.2^a %"}, {"measurement": "percentage of pES cell-derived neural lineages expressing O4", "setting": "[1]", "result": "90.7 ± 5.9", "unit": "%"}, {"measurement": "percentage of pES cell-derived neural lineages expressing S100", "setting": "[1]", "result": "71.4 ± 12.5^a %"}, {"measurement": "percentage of differentiated cells GFAP positive", "setting": "during the 12-day post-treatment period (Table 3)", "result": "Less than 10%"}, {"measurement": "percentage of cells expressing TH", "setting": "during the culture, day 2 to day 12 (text summary of Table 5)", "result": "below 10%"}, {"measurement": "ratio of cells expressing A2B5", "setting": "during the following culture, day 2 to day 12 (text summary of Table 4)", "result": "above 80%"}]}
